Assay results reported in patent publication US20190070128A1, “USE OF CANNABIDIVARIN IN THE TREATMENT OF AUTISM SPECTRUM DISORDER, ASSOCIATED DISORDERS AND SCHIZOPHRENIA” (GW Research Limited, priority 2016, published 2019).

Assays:
[1] = test system: Ube3am-/p+ (AS) mice; experiment: clasping test in Angelman syndrome mice; assay type: in vivo, mouse; settings: chronic treatment (30 days), 20 mg/kg i.p., 10 weeks of age, vs AS vehicle
Experimental: Heterozygous mice with maternal deficiency of Ube3A (Ube3am−/p+) and wild type (Ube3am+/p+) were purchased from The Jackson Laboratory (Jackson code: B6.12957-Ube3a tm1Alb/J) and maintained in a C57BL/6 background.
Drugs were dissolved in 1:1:18 ethanol:cremophor:0.9% saline, for intraperitoneal (i.p.) administration. Drug treatment was performed daily for 35 days. CBDV was administered at 20 mg/kg.
Clasping: The clasping test assesses ataxia in mice. Mice were suspended by the base of the tail and their behaviours were recorded for 30 seconds. The time for which the mice clasped their hind limbs was recorded. The time was then scored as follows: 4, 15-30 s, 3, 10-15 s, 2, 5-10 s, 1, 0-5 s and 0.0 s

[2] = test system: animal models of seizure; settings: in vivo; cited from earlier work
[3] = test system: VPA-exposed rats; experiment: locomotor activity and repetitive behaviours, prenatal VPA model; assay type: in vivo, rat
Experimental: Pregnant Sprague-Dawley rats (Charles River, Calco, Italy), received a single intraperitoneal injection of 500 mg/kg sodium valproate on the 12.5 day after conception, and control females were injected with physiological saline at the same time. Sodium valproate (Sigma Aldrich, Milan, IT) was dissolved in saline at a concentration of 250 mg/ml.
CBDV was dissolved in ethanol, cremophor and saline (1:1:18). Symptomatic treatment with CBDV at doses of 0.2, 2, 20, and 100 mg/kg/day i.p. was performed starting from PND 34 (early adolescence) till 56 (early adulthood), both in male and female offspring of dams injected with VPA 500 mg/kg (or vehicle) on day 12.5 after conception. At PND 56, a series of behavioural tests was performed in order to assess the effect of chronic CBDV on sociability, social novelty, short-term memory, locomotion and stereotyped/repetitive behaviours.
Locomotor activity and repetitive behaviours: Locomotor activity was recorded in an activity cage for 20 minutes with the aid of Anymaze program (Ugo Basile, Italy). In this period, repetitive behaviours (self-grooming and digging) were measured by an observer blind to the treatment group.

[4] = test system: Fmr1 KO mice; experiment: novel object recognition task in Fmr1 KO mice; assay type: in vivo, mouse; settings: for discrimination index level: chronic
Experimental: Fmr1 KO mice and wild type mice were obtained and housed four per cage in a temperature of 21° C.±1° C. and humidity of 55%±10% controlled environment. Food and water were available ad libitum. All experiments were performed during the light phase of a 12 hour light/dark cycle (08:00 to 20:00). Animals were handled for one week before the start of experiments. All behavioural tests were performed by researchers blind to the different experimental groups.
On day one mice were habituated for 10 minutes to the empty V-maze in which the task was to be performed. On the second day the mice went back to the maze for 10 minutes which contained two identical objects at the end of each corridor in the V-maze.
The following day the mice were placed again in the same maze for a further 10 minutes but one of the familiar objects was replaced for a novel object. The total time spent exploring the novel and familiar object was recorded. A discrimination index was calculated as the difference between the time spent exploring the novel and familiar object divided by the total time exploring the two objects. A high discrimination index (0.3-0.5) is considered to reflect memory retention for the familiar object.
Adult mice (10-15 weeks old) were treated either acutely with one dose of CBDV on […] or were treated once daily with CBDV for 7 consecutive days. Mice were evaluated in the novel object recognition task after the first and sixth day of CBDV administration. Doses of CBDV used were 2, 10, 20, 100 and 200 mg/kg.

[5] = test system: PCP-treated rats; experiment: novel object recognition test in sub-chronic PCP treated rats; assay type: in vivo, rat
Experimental: Female hooded-Lister rats were used for this experiment. Rats were housed in groups of 5 under standard laboratory conditions under a 12 hr light: dark cycle, lights on at 0700 hr. Testing was carried out in the light phase.
Rats were randomly assigned to two treatment groups and treated with vehicle, n=20 (distilled water, i.p.) or Phencyclidine hydrochloride (PCP), n=100 (2 mg/kg, i.p. twice daily for 7-days). PCP was dissolved in distilled water. This was followed by a 7-day wash out period before the rats were tested following acute treatment with CBDV, risperidone or vehicle.
Risperidone (0.1 mg/kg) was dissolved in a minimum volume of acetic acid, made up to volume with distilled water and pH adjusted to 6 with 0.1M NaOH and administered via the i.p. route in a volume of 1 ml/kg, 60 min prior to testing.
CBDV at 2, 10 or 20 mg/kg was dissolved in 2:1:17 (Ethanol:Cremofor:Saline 0.9%) and administered via the i.p. route in a volume of 5 ml/kg, 60 min prior to testing.
Rats were allowed to habituate to the empty test box and the behavioural test room environment for 1 h on day 1. Prior to behavioural testing on day 2 rats are given a further 3 min habituation.
Following the 3 min habituation period, the rats are given two 3 min trials (T1 and T2) which are separated by a 1 min inter-trial interval in the home cage during which the objects are changed. Behaviour in all trials was recorded on video for subsequent blind scoring.
In this trial, the animals are allowed to explore two identical objects (A1 and A2) for 3 min.
In this trial, the animals explore a familiar object (A) from T1 and a novel object (B) for 3 min. The familiar object presented during T2 is a duplicate of the object presented in T1 in order to avoid any olfactory trails.
The object exploration is defined by animals licking, sniffing or touching the object with the forepaws whilst sniffing, but not leaning against, turning around, standing or sitting on the object. The exploration time (s) of each object (A, B, familiar and novel) in each trial are recorded using two stopwatches and the following factors are calculated: • Total exploration time of both objects in the acquisition trial (s). • Total exploration time of both objects in the retention trial (s). • Habituation of exploratory activity includes the exploration time, as measured by the number of lines crossed, for both the trials. • Discrimination index (DI), which is calculated as shown below: […]

## C=C(C)[C@@H]1CCC(C)=C[C@H]1c1c(O)cc(CCC)cc1O [CBDV, Cannabidivarin]
[1]
  clasping duration: significantly reduced
[2]
  effect in animal models of seizure: effective
[3]; females, 2 and 100 mg/kg
  time spent in compulsive self-grooming: significantly normalize
[3]; males, 20 mg/kg
  time spent in compulsive self-grooming: significantly normalize
[3]; males, 2, 20 and 100 mg/kg
  locomotion increased by VPA: normalize
[4]; acute treatment, 2 mg/kg
  increase of discrimination index over vehicle treated mice: not significant
[4]; acute treatment, any of the doses
  discrimination index: no effect
[4]; chronic (once daily for 7 days), 20 and 100 mg/kg
  discrimination index over vehicle treated knockout mice: statistically significant increase
[4]; 20 mg/kg
  discrimination index level: over 0.3
[4]; 100 mg/kg
  discrimination index level: over 0.3
[5]; PCP rats, 10 and 20 mg/kg
  discrimination index (DI): statistically significant increase
[5]; PCP rats, CBDV 2, 10 or 20 mg/kg i.p., risperidone 0.1 mg/kg i.p., 60 min prior to testing
  preference between two identical objects, Trial 1 (acquisition): no real preference
[5]; PCP treated rats, CBDV 10 and 20 mg/kg i.p.
  cognitive dysfunction (discrimination between familiar and novel objects, Trial 2): reverse
